Like-named read-outs stand apart in the source and are kept apart here.
Assays:
human TRPA1 [1] = molecular target: T1, human TRPA1 (Homo sapiens, UniProt O75762); assay: Pre-Incubation Test Method, TRPA1 (FLIPR intracellular calcium, AITC activator); assay type: cell-based
T1 construct: expressed in transfected cells; host or cells: HEK-293
Description: (§1) The Pre-Incubation Test and Direct Addition Test Methods, as defined herein, can be conducted on either TRPV1 or TRPA1 receptors.
(§2) Pre-Incubation Test Method: First, the intracellular calcium ion (Ca^+2) levels in TRPV1 and TRPA1 receptors is measured. […] Cells are detached with addition of 10 ml of PBS (phosphate buffered saline) by hand shaking gently. Cells are transferred to a 50 ml tube and centrifuged at 850 rpm for 3 minutes to remove PBS. After centrifugation, a pellet of cells is formed in the bottom of the tube separating them from the supernatant solution. […] Fluo-4 is a fluorescent dye used for quantifying cellular Ca^2+ concentrations in the 100 nM to 1 microM range. At the end of the 30 minutes, 45 ml of assay buffer [1× HBSS (Hank's Balanced Salt Solution), 20 mM HEPES (4-(2-Hydroxyethyl)-1-piperazineethanesulfonic acid)] is added to wash cells and the resulting combination is then centrifuged at 850 rpm for 3 minutes to remove excess buffer and Fluo-4 AM calcium indicator.
(§3) The pellet cells are re-suspended in 10 ml assay buffer and 90 μl aliquots (˜50,000 cells) per well delivered to a 96-well assay plate containing 10 μl of test compounds (1 mM in assay buffer, final concentration 100 μM) or buffer control and incubated at room temperature for 30 minutes. […] The FLIPR assay is an accepted method for detecting changes in intracellular calcium concentration. Then 20 μl of the activators [1.8 μM Capsaicin (final concentration 300 nM) for TRPV1 or 300 μM AITC (final concentration 50 μM) for TRPA1 is added by FLIPR automatically and fluorescence recorded immediately.

human TRPV1 [2] = molecular target: T2, human TRPV1 (Homo sapiens, UniProt Q8NER1); assay: Direct Addition Test Method, TRPV1 (FLIPR intracellular calcium); assay type: cell-based
T2 construct: expressed in transfected cells; host or cells: HEK-293
T2 sequence (Q8NER1 whole entry): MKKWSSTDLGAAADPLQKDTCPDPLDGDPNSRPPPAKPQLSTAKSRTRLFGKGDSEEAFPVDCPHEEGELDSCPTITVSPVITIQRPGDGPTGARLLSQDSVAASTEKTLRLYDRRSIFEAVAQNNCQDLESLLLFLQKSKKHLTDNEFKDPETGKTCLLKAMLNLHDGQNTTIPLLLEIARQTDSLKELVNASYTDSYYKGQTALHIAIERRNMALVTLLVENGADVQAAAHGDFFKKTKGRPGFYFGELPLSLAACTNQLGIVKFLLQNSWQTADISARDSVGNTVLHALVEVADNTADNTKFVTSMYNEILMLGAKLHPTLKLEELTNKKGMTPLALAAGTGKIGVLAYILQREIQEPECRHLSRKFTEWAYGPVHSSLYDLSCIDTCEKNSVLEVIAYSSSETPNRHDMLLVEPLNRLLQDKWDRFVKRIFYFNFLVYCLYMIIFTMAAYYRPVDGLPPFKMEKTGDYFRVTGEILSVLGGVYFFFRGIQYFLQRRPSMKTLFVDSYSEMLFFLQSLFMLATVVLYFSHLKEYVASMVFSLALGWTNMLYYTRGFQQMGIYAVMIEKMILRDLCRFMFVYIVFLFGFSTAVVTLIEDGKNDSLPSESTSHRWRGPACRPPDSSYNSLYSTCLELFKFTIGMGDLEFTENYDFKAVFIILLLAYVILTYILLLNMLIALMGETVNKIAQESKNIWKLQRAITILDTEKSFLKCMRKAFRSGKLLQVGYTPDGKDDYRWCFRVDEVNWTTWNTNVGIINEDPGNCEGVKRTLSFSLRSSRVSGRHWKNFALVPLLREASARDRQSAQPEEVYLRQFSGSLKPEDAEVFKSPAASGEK
Description: as §1, §2, §3
(§4) Direct Addition Test Method (for determining the direct effect of test compounds on TRPV1 and TRPA1): All procedures are same as the pre-incubation test except 10 μl assay buffer instead of 10 μl test compounds in the 96-well assay plates. The fluorescence is measured immediately after addition of 20 μl of 600 μM each compound (final concentration 100 μM). The 20 μl of activator (capsaicin or AITC) is as the positive control. The percentage of up-regulation or down-regulation is calculated based on the fluorescence measurement.

[3] = In use irritation Test 2 (single variable shave test with panelists); assay type: in vivo; details: control 5.60
Description: • In use irritation Test 2: Five samples are produced with the same blank testing formulation as in Test 1, above. Samples are tested with panelists in a single variable shave test with only the addition and level of sensate being varied.

human TRPV1 [4] = molecular target: T2, human TRPV1; assay: Pre-Incubation Test Method, TRPV1 (FLIPR intracellular calcium, capsaicin activator); assay type: cell-based
Description: as §1, §2, §3

human TRPA1 [5] = molecular target: T1, human TRPA1; assay: Direct Addition Test Method, TRPA1 (FLIPR intracellular calcium); assay type: cell-based
Description: as §1, §2, §3, §4

[6] = In use irritation Test 1 (single variable shave test with panelists); assay type: in vivo; details: control 6.3
Description: 10. In Use Irritation Data: • In use irritation Test 1: Five samples are produced with the following formulation. Samples are tested with panelists in a single variable shave test with only the addition and level of sensate being varied. Respondents provide average irritation ratings summarized below. • Testing formula: […]

[7] = TRPA1, HEK-293 cells, test compound final concentration 100 μM, 30 minutes pre-incubation, activator AITC 50 μM
[8] = TRPV1, HEK-293 cells, compound final concentration 100 μM, no pre-incubation, capsaicin as positive control
[9] = TRPV1, HEK-293 cells, test compound final concentration 100 μM, 30 minutes pre-incubation, activator Capsaicin 300 nM
[10] = TRPA1, HEK-293 cells, compound final concentration 100 μM, no pre-incubation, AITC as positive control
[11] = sensate added to control formula at 0.2%

T1 sequence (O75762 whole entry): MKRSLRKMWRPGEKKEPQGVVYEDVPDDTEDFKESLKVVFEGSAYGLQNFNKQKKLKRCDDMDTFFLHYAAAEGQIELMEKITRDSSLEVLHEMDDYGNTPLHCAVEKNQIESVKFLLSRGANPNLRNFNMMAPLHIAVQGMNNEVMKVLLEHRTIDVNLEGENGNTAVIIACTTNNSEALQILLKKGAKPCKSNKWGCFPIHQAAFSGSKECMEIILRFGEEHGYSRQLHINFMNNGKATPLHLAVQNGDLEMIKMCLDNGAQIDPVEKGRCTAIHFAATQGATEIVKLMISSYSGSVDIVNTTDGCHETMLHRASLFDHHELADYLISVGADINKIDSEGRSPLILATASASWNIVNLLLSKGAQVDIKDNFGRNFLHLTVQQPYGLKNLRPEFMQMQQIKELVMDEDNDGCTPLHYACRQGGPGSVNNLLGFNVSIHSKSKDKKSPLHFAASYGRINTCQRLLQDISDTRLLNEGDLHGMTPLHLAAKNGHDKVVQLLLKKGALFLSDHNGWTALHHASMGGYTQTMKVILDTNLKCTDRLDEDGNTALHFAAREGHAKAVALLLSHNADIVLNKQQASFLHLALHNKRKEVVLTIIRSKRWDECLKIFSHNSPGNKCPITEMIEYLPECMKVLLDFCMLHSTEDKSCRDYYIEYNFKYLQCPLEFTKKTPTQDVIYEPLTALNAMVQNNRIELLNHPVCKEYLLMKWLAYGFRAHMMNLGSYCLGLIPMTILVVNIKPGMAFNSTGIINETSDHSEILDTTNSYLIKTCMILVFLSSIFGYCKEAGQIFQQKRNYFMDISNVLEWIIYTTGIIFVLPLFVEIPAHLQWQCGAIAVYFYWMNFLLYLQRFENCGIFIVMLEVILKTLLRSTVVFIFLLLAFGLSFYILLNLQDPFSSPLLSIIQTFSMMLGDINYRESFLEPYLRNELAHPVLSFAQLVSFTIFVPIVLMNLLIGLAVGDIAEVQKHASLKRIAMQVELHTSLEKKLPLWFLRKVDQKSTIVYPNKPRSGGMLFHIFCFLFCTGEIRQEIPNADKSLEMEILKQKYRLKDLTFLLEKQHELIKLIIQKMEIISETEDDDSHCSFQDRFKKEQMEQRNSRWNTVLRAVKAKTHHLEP

C=C1CCC(C)C(C)(C)C1/C=C/C(C)=O (stereo not shown)
Pre-incubation % Regulation (human TRPA1 [1]; [7]): 23.55% | Direct Addition % Regulation (human TRPV1 [2]; [8]): 5.24% | Avg Irritation Score ([3]; sensate at 0.1% in control formulation): 5.40 | Pre-incubation % Regulation (human TRPV1 [4]; [9]): 22.16% | Direct Addition % Regulation (human TRPA1 [5]; [10]): 4.96%

Cc1cc(O)ccc1Cl [4-chloro-3-methylphenol]
Pre-incubation % Regulation (human TRPA1 [1]; [7]): −0.43% | Direct Addition % Regulation (human TRPV1 [2]; [8]): 292.92% | Avg Irritation Score [6, 11]: 4.3 | Pre-incubation % Regulation (human TRPV1 [4]; [9]): 47.49% | Direct Addition % Regulation (human TRPA1 [5]; [10]): 319.54%

CC(=O)CCC=C(C)C [6-Methyl-5-hepten-2-one, 6-methyl-5-hepten-2-one]
Avg Irritation Score ([6]; sensate added to control formula at 0.15%): 6.0

OCc1ccccc1 [Benzyl Alcohol, benzyl alcohol]
Pre-incubation % Regulation (human TRPA1 [1]; [7]): 14.61% | Direct Addition % Regulation (human TRPV1 [2]; [8]): −2.09% | Avg Irritation Score ([6]; sensate added to control formula at 1%): 4.8 | Pre-incubation % Regulation (human TRPV1 [4]; [9]): 51.18% | Direct Addition % Regulation (human TRPA1 [5]; [10]): 21.39%

Cc1cc(O)cc(C)c1Cl [Chloroxylenol, chloroxylenol]
Pre-incubation % Regulation (human TRPA1 [1]; [7]): −0.08% | Direct Addition % Regulation (human TRPV1 [2]; [8]): 326.69% | Avg Irritation Score [6, 11]: 5.2 | Pre-incubation % Regulation (human TRPV1 [4]; [9]): 37.52% | Direct Addition % Regulation (human TRPA1 [5]; [10]): 381.06%

CC(C)C(=O)OCCOc1ccccc1 [Phenoxyethyl Isobutyrate, phenoxyethyl isobutyrate]
Pre-incubation % Regulation (human TRPA1 [1]; [7]): 36.8% | Direct Addition % Regulation (human TRPV1 [2]; [8]): −6.84% | Avg Irritation Score ([3]; sensate at 0.13% in control formulation): 4.45 | Pre-incubation % Regulation (human TRPV1 [4]; [9]): 41.34% | Direct Addition % Regulation (human TRPA1 [5]; [10]): −7.84%

CC(=O)[O][Zn][O]C(C)=O [Zinc Acetate, zinc acetate]
Pre-incubation % Regulation (human TRPA1 [1]): 21.67% | Direct Addition % Regulation (human TRPV1 [2]): 0.88% | Avg Irritation Score ([3]; sensate at 0.03% in control formulation): 4.55 | Pre-incubation % Regulation (human TRPV1 [4]): 35.2% | Direct Addition % Regulation (human TRPA1 [5]): −0.66%
